Reference: patent US12146004B2, “Polymyxin compounds and uses thereof” (priority 2014, dated 2024)
Values after ≈ are worked out from the molar mass of the structure shown. Like-named read-outs stand apart in the source and are kept apart here. Bridge positions count the residues as written; N and C are the ends. Square brackets hold non-standard residues; d marks the D form. Peptide text beside a SMILES is read from it. * marks the point of attachment. ξ: configuration not given here. dCha = N[C@H](CC1CCCCC1)C(=O)O; Thr(3ξ) = CC(O)[C@H](N)C(=O)O; X1 = CC(C)CN1CCNC[C@H]1C(=O)*; X4 = CC(C)CC1CNCC(C(=O)*)C1; Dab = NCC[C@H](N)C(=O)O

Assays:
Assay type in all cases: cell-based
[1] = test system: Acinetobacter baumannii
In short: (§1)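 Each compound was tested against a panel of up to nine strains per Gram-negative species. The panel included strains that show elevated MICs to Polymyxin. Activity was recorded as MIC in μg/mL.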

[2] = test system: Escherichia coli
In short: as §1

[3] = test system: Klebsiella pneumoniae
In short: as §1

[4] = test system: Pseudomonas aeruginosa
In short: as §1

Compound | MIC A. baumanii 053 [1] [µg/mL] | MIC A. baumanii 056 [1] [µg/mL] | MIC A. baumanii ATCC BAA-747 [1] [µg/mL] | MIC A. baumanii NCTC 13424 [1] [µg/mL] | MIC E. coli 058 [2] [µg/mL] | MIC E. coli 061 [2] [µg/mL] | MIC E. coli ATCC 25922 [2] [µg/mL] | MIC K. pneumoniae 063 [3] [µg/mL] | MIC K. pneumoniae 065 [3] [µg/mL] | MIC K. pneumoniae ATCC 13882 [3] [µg/mL] | MIC P. aeruginosa 068 [4] [µg/mL] | MIC P. aeruginosa 070 [4] [µg/mL] | MIC P. aeruginosa ATCC 27853 [4] [µg/mL] | MIC P. aeruginosa CCUG 59347 [4] [µg/mL] | MIC A. baumanii ATCC BAA-747 ([1]; strain ATCC BAA-747) [µg/mL] | MIC A. baumanii NCTC 13424 ([1]; strain NCTC 13424) [µg/mL] | MIC E. coli 058 ([2]; strain 058) [µg/mL] | MIC E. coli ATCC 25922 ([2]; strain ATCC 25922) [µg/mL] | MIC K. pneumoniae 065 ([3]; strain 065) [µg/mL] | MIC K. pneumoniae ATCC 13882 ([3]; strain ATCC 13882) [µg/mL] | also measured
CC(C)C[C@@H]1NC(=O)[C@@H](CC2CCCCC2)NC(=O)[C@H](CCN)NC(=O)[C@@H](NC(=O)[C@H](CN)NC(=O)[C@@H](NC(=O)CC(CN)C2CCCCC2)C(C)O)CCNC(=O)[C@H]([C@@H](C)O)NC(=O)[C@H](CCN)NC(=O)[C@H](CCN)NC1=O (single isomer, unassigned; isomer 1) [Example 42, 4-amino-3-cyclohexylbutanoyl L-Thr-L-Dap-polymyxin [D-cyclohexylalanine]-6 heptapeptide. Isomer 1] | – | – | – | – | – | – | – | – | – | – | – | – | – | – | 0.125 (≈ 0.111 µM) | 0.125 (≈ 0.111 µM) | 4 (≈ 3.56 µM) | 0.5 (≈ 0.445 µM) | 2 (≈ 1.78 µM) | 0.25 (≈ 0.223 µM) | MIC A. baumanii 053 ([1]; strain 053): >64 µg/mL; MIC A. baumanii 056 ([1]; strain 056): 32 µg/mL (≈ 28.5 µM); MIC E. coli 061 ([2]; strain 061): 8 µg/mL (≈ 7.13 µM); MIC E. coli NCTC 9001 ([2]; strain NCTC 9001): 0.06 µg/mL (≈ 0.0535 µM); MIC K. pneumoniae 063 ([3]; strain 063): 32 µg/mL (≈ 28.5 µM); MIC P. aeruginosa 068 ([4]; strain 068): 2 µg/mL (≈ 1.78 µM); MIC P. aeruginosa 070 ([4]; strain 070): 4 µg/mL (≈ 3.56 µM); MIC P. aeruginosa ATCC 27853 ([4]; strain ATCC 27853): 0.5 µg/mL (≈ 0.445 µM); MIC P. aeruginosa CCUG 59347 ([4]; strain CCUG 59347): 0.5 µg/mL (≈ 0.445 µM)
CC(C)C[C@@H]1NC(=O)[C@@H](CC2CCCCC2)NC(=O)[C@H](CCN)NC(=O)[C@@H](NC(=O)[C@H](CCN)NC(=O)[C@@H](NC(=O)CC(CN)c2ccccc2)[C@@H](C)O)CCNC(=O)[C@H]([C@@H](C)O)NC(=O)[C@H](CCN)NC(=O)[C@H](CCN)NC1=O (single isomer, unassigned; isomer 2) [Example 57, 4-amino-3-phenylbutanoyl polymyxin [D-cyclohexylalanine]-6 nonapeptide isomer 2] | – | – | – | – | – | – | – | – | – | – | – | – | – | – | 1 (≈ 0.885 µM) | 1 (≈ 0.885 µM) | 16 (≈ 14.2 µM) | 0.25 (≈ 0.221 µM) | 8 (≈ 7.08 µM) | 0.25 (≈ 0.221 µM) | MIC P. aeruginosa ATCC 27853 ([4]; strain ATCC 27853): 0.25 µg/mL (≈ 0.221 µM); MIC P. aeruginosa CCUG 59347 ([4]; strain CCUG 59347): 0.5 µg/mL (≈ 0.442 µM)

Second part, led by results:

MIC A. baumanii 053 [1] [µg/mL] | MIC A. baumanii 056 [1] [µg/mL] | MIC A. baumanii ATCC BAA-747 [1] [µg/mL] | MIC A. baumanii NCTC 13424 [1] [µg/mL] | MIC E. coli 058 [2] [µg/mL] | MIC E. coli 061 [2] [µg/mL] | MIC E. coli ATCC 25922 [2] [µg/mL] | MIC K. pneumoniae 063 [3] [µg/mL] | MIC K. pneumoniae 065 [3] [µg/mL] | MIC K. pneumoniae ATCC 13882 [3] [µg/mL] | MIC P. aeruginosa 068 [4] [µg/mL] | MIC P. aeruginosa 070 [4] [µg/mL] | MIC P. aeruginosa ATCC 27853 [4] [µg/mL] | MIC P. aeruginosa CCUG 59347 [4] [µg/mL] | Compound | MIC A. baumanii ATCC BAA-747 ([1]; strain ATCC BAA-747) [µg/mL] | MIC A. baumanii NCTC 13424 ([1]; strain NCTC 13424) [µg/mL] | MIC E. coli 058 ([2]; strain 058) [µg/mL] | MIC E. coli ATCC 25922 ([2]; strain ATCC 25922) [µg/mL] | MIC K. pneumoniae 065 ([3]; strain 065) [µg/mL] | MIC K. pneumoniae ATCC 13882 ([3]; strain ATCC 13882) [µg/mL] | also measured
64 (≈ 56.3 µM) | 16 (≈ 14.1 µM) | 0.25 (≈ 0.22 µM) | 0.125 (≈ 0.11 µM) | 1 (≈ 0.88 µM) | 2 (≈ 1.76 µM) | 0.125 (≈ 0.11 µM) | 8 (≈ 7.04 µM) | 2 (≈ 1.76 µM) | 0.25 (≈ 0.22 µM) | 1 (≈ 0.88 µM) | 1 (≈ 0.88 µM) | 0.5 (≈ 0.44 µM) | 0.5 (≈ 0.44 µM) | CC(C)CC1CNCC(C(=O)N[C@H](C(=O)N[C@@H](CCN)C(=O)N[C@H]2CCNC(=O)[C@H]([C@@H](C)O)NC(=O)[C@H](CCN)NC(=O)[C@H](CCN)NC(=O)[C@H](CC(C)C)NC(=O)[C@@H](CC3CCCCC3)NC(=O)[C@H](CCN)NC2=O)[C@@H](C)O)C1 (stereo partly drawn) [Example 73] (X4-T[Dab][Dab][Dab][dCha]L[Dab][Dab]T; lactam 3-C) | – | – | – | – | – | – | MIC E. coli NCTC 9001 [2]: 0.125 µg/mL (≈ 0.11 µM)
>64 | >64 | 0.25 (≈ 0.22 µM) | 0.25 (≈ 0.22 µM) | 8 (≈ 7.03 µM) | 16 (≈ 14.1 µM) | 0.25 (≈ 0.22 µM) | 64 (≈ 56.3 µM) | 8 (≈ 7.03 µM) | 0.25 (≈ 0.22 µM) | 16 (≈ 14.1 µM) | 16 (≈ 14.1 µM) | 0.5 (≈ 0.44 µM) | 1 (≈ 0.879 µM) | CC(C)C[C@@H]1NC(=O)[C@@H](CC2CCCCC2)NC(=O)[C@H](CCN)NC(=O)[C@@H](NC(=O)[C@H](CCN)NC(=O)[C@@H](NC(=O)[C@@H]2CNCCN2CC(C)C)C(C)O)CCNC(=O)[C@H]([C@@H](C)O)NC(=O)[C@H](CCN)NC(=O)[C@H](CCN)NC1=O (stereo partly drawn) [Example 52, (S)-1-isobutylpiperazine-2-carbonyl polymyxin [D-cyclohexylalanine]-6 nonapeptide] (X1-[Thr(3ξ)][Dab][Dab][Dab][dCha]L[Dab][Dab]T; lactam 3-C) | – | – | – | – | – | – | –
– | – | 0.5 (≈ 0.434 µM) | 0.25 (≈ 0.217 µM) | 2 (≈ 1.74 µM) | – | 0.5 (≈ 0.434 µM) | – | 0.25 (≈ 0.217 µM) | 0.5 (≈ 0.434 µM) | – | – | 0.5 (≈ 0.434 µM) | 0.5 (≈ 0.434 µM) | CC(C)C[C@@H]1NC(=O)[C@@H](CC2CCCCC2)NC(=O)[C@H](CCN)NC(=O)[C@@H](NC(=O)[C@H](CN)NC(=O)[C@@H](NC(=O)CC(CN)c2ccc(Cl)cc2)C(C)O)CCNC(=O)[C@H]([C@@H](C)O)NC(=O)[C@H](CCN)NC(=O)[C@H](CCN)NC1=O (single isomer, unassigned; isomer 2) [Example 51, 4-amino-3-(4-chlorophenyl) butanoyl L-Thr-L-Dap-polymyxin [D-cyclohexylalanine]-6 heptapeptide. Isomer 2] | – | – | – | – | – | – | –
